Read-outs that look alike come from different tables or passages of the source.
Columns and labels:
[1] = biological target: T1, human GLP-1 receptor (Homo sapiens, UniProt P43220); experiment: cAMP response of HEK-293 cells stably expressing human GLP-1 receptor (HTRF); assay type: cell-based; conditions: read-out: EC50 hGLP-1R
T1 construct: expressed in transfected cells; host or cells: HEK-293
Summary of the method: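 HEK-293 cells stably expressing the receptor were taken up in HBSS/20 mM HEPES/0.1% BSA with 2 mM IBMX at 400000 cells/ml. They were exposed to increasing concentrations of peptide for 30 minutes at room temperature, and formed cAMP was measured by HTRF.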

[2] = biological target: T2, human glucagon receptor (Homo sapiens, UniProt P47871); experiment: cAMP response of HEK-293 cells stably expressing human glucagon receptor (HTRF); assay type: cell-based; conditions: read-out: EC50 hGlucagon-R
T2 construct: expressed in transfected cells; host or cells: HEK-293
T2 sequence (P47871 26-477): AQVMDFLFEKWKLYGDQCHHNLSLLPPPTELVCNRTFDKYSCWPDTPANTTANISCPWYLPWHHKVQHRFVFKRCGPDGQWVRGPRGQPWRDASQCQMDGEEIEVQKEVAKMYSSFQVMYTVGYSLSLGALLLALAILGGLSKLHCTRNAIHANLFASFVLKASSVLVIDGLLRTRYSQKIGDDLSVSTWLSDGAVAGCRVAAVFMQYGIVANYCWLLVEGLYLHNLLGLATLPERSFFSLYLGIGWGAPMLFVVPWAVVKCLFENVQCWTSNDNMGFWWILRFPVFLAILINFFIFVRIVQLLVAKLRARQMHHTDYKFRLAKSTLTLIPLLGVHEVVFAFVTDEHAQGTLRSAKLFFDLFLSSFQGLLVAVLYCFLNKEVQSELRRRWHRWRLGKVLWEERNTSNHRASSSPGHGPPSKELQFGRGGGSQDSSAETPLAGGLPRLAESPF
Description: (§1) For preparation, cells were split into T175 culture flasks and grown overnight to near confluency in medium (DMEM/10% FBS). Medium was then removed and cells washed with PBS lacking calcium and magnesium, followed by proteinase treatment with accutase (Sigma-Aldrich cat. no. A6964). Detached cells were washed and resuspended in assay buffer (1×HBSS; 20 mM HEPES, 0.1% BSA, 2 mM IBMX) and cellular density determined. They were then diluted to 400000 cells/ml and 25 μl-aliquots dispensed into the wells of 96-well plates. For measurement, 25 μl of test compound in assay buffer was added to the wells, followed by incubation for 30 minutes at room temperature. […] Potencies of peptidic compounds at the GLP-1, glucagon and GIP receptors were determined by exposing cells expressing human glucagon receptor (hGlucagon R), human GIP receptor (hGIP-R) or human GLP-1 receptor (hGLP-1R) to the listed compounds at increasing concentrations and measuring the formed cAMP as described in Methods.

[3] = biological target: T3, human GIP receptor (Homo sapiens, UniProt P48546); experiment: cAMP response of HEK-293 cells stably expressing human GIP receptor (HTRF); assay type: cell-based
T3 construct: expressed in transfected cells; host or cells: HEK-293
T3 sequence (P48546 22-466): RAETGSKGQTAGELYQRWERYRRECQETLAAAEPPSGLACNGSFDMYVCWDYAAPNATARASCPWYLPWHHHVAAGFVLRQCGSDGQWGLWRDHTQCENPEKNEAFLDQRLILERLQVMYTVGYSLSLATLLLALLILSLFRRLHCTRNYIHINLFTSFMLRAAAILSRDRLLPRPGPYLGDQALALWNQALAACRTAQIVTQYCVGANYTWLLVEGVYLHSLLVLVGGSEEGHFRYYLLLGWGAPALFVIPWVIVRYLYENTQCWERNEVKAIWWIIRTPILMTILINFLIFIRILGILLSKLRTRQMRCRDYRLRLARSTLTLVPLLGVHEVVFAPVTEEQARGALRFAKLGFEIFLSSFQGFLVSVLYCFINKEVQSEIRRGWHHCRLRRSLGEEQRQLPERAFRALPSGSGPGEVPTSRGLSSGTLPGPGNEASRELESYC
Description: as §1

[4] = Solubility testing in buffer (HPLC-UV); assay type: physicochemical
Description: Prior to the testing of solubility and stability of a peptide batch, its purity (HPLC-UV) was determined. […] Therefore, solutions from solid samples were prepared in different buffer systems with a concentration of 10 mg/mL compound based on the previously determined % purity. HPLC-UV was performed after 2 h of gentle agitation from the supernatant, which was obtained by 20 min of centrifugation at 4500 rpm. […] This analysis also served as starting point (t0) for the stability testing.

[5] = Stability testing in solution, 7 days at 40° C. (HPLC-UV); assay type: physicochemical
Description: After that time course, the sample was centrifuged for 20 min at 4500 rpm and 0.2 μL of the supernatant were analysed with HPLC-UV.
For determination of the amount of the remaining peptide, the peak areas of the target compound at t0 and t7 were compared, resulting in “% remaining peptide”, following the equation % remaining peptide=[(peak area peptide t7)×100]/peak area peptide t0.
The stability is expressed as “% remaining peptide”.

[6] = Table 7, comparison of residue in position 14

T1 sequence (P43220 24-463): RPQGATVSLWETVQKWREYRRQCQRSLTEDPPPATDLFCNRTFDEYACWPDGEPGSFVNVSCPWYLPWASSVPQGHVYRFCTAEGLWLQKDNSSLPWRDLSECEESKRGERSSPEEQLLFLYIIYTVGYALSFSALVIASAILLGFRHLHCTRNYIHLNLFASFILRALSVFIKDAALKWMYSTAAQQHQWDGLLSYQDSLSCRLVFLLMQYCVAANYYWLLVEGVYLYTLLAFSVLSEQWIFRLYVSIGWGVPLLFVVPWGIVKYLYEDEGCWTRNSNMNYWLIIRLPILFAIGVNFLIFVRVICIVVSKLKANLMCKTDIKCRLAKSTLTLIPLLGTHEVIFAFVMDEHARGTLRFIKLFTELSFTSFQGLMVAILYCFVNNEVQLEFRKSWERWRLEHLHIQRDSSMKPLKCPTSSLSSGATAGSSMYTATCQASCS

Structure (SMILES)	EC50 ([1]; Table 6) [pM]	EC50 ([2]; Table 6) [pM]	EC50 ([3]; Table 6, read-out: EC50 hGIP-R) [pM]	EC50 [1, 6] [pM]	EC50 [2, 6] [pM]	EC50 ([3]; Table 7, comparison of residue in position 14, read-out: EC50 hGIP-1) [pM]	solubility at 2 h ([4]; pH 4.5, target concentration 10 mg/ml, read-out: solubility pH 4.5) [µg/mL]	solubility at 2 h ([4]; pH 7.4, target concentration 10 mg/ml, read-out: solubility pH 7.4) [µg/mL]	Stability pH 4.5 ([5]; pH 4.5, 7 days at 40° C. in solution) [% remaining peptide]	Stability pH 7.4 ([5]; pH 7.4, 7 days at 40° C. in solution) [% remaining peptide]
CCCCCCCCCCCCCCCCCC(=O)N[C@@H](CCC(=O)NCCCC[C@H](NC(=O)[C@H](CCC(N)=O)NC(=O)[C@H](CCCCN)NC(=O)[C@H](CO)NC(=O)[C@H](CC(C)C)NC(=O)[C@H](CC(=O)O)NC(=O)[C@H](CO)NC(=O)[C@@H](NC(=O)[C@H](Cc1ccccc1)NC(=O)[C@@H](NC(=O)CNC(=O)[C@H](CCC(N)=O)NC(=O)[C@@H](CO)NC(=O)[C@@H](N)Cc1c[nH]cn1)[C@@H](C)O)[C@@H](C)O)C(=O)N[C@@H](CC(=O)O)C(=O)N[C@@H](CCC(=O)O)C(=O)N[C@@H](CCC(=O)O)C(=O)N[C@@H](C)C(=O)N[C@@H](C)C(=O)N[C@@H](CCCNC(=N)N)C(=O)N[C@@H](CC(C)C)C(=O)N[C@@H](Cc1ccccc1)C(=O)N[C@H](C(=O)N[C@@H](CCC(=O)O)C(=O)N[C@@H](Cc1c[nH]c2ccccc12)C(=O)N[C@@H](CC(C)C)C(=O)NC(C)(C)C(=O)N[C@@H](C)C(=O)NCC(=O)NCC(=O)N1CCC[C@H]1C(=O)N[C@@H](CO)C(=O)N[C@@H](CO)C(=O)NCC(=O)N[C@@H](C)C(=O)N1CCC[C@H]1C(=O)N1CCC[C@H]1C(=O)N1CCC[C@H]1C(=O)N[C@@H](CO)C(N)=O)[C@@H](C)CC)C(=O)O [SEQ ID NO: 13, H-dSer-Q-G-T-F-T-S-D-L-S-K-Q-K(γE-x70)-D-E-E-A-A-R-L-F-I-E-W-L-Aib-A-G-G-P-S-S-G-A-P-P-P-S-NH2]	2.7	6.8	2540	–	–	–	–	–	–	–
CCCCCCCCCCCCCCCC(=O)N[C@@H](CCC(=O)N[C@@H](CCC(=O)NCCCC[C@H](NC(=O)[C@H](CCC(N)=O)NC(=O)[C@H](CCCCN)NC(=O)[C@H](CO)NC(=O)[C@H](CC(C)C)NC(=O)[C@H](CC(=O)O)NC(=O)[C@H](CO)NC(=O)[C@@H](NC(=O)[C@H](Cc1ccccc1)NC(=O)[C@@H](NC(=O)CNC(=O)[C@H](CCC(N)=O)NC(=O)[C@H](CO)NC(=O)[C@@H](N)Cc1c[nH]cn1)[C@@H](C)O)[C@@H](C)O)C(=O)N[C@@H](CC(=O)O)C(=O)N[C@@H](CCC(=O)O)C(=O)N[C@@H](CCC(=O)O)C(=O)N[C@@H](C)C(=O)N[C@@H](C)C(=O)N[C@@H](CCCNC(=N)N)C(=O)N[C@@H](CC(C)C)C(=O)N[C@@H](Cc1ccccc1)C(=O)N[C@H](C(=O)N[C@@H](CCC(=O)O)C(=O)N[C@@H](Cc1c[nH]c2ccccc12)C(=O)N[C@@H](CC(C)C)C(=O)NC(C)(C)C(=O)N[C@@H](C)C(=O)NCC(=O)NCC(=O)N1CCC[C@H]1C(=O)N[C@@H](CO)C(=O)N[C@@H](CO)C(=O)NCC(=O)N[C@@H](C)C(=O)N1CCC[C@H]1C(=O)N1CCC[C@H]1C(=O)N1CCC[C@H]1C(=O)N[C@@H](CO)C(N)=O)[C@@H](C)CC)C(=O)O)C(=O)O [SEQ ID NO: 11, H-S-Q-G-T-F-T-S-D-L-S-K-Q-K(γE-γE-x53)-D-E-E-A-A-R-L-F-I-E-W-L-Aib-A-G-G-P-S-S-G-A-P-P-P-S-NH2]	1.2	5.1	560	–	–	–	–	–	–	–
CCCCCCCCCCCCCCCC(=O)N[C@@H](CCC(=O)N[C@@H](CCC(=O)NCCCC[C@H](NC(=O)[C@H](CCC(N)=O)NC(=O)[C@H](CCCCN)NC(=O)[C@H](CO)NC(=O)[C@H](CC(C)C)NC(=O)[C@H](CC(=O)O)NC(=O)[C@H](CO)NC(=O)[C@@H](NC(=O)[C@H](Cc1ccccc1)NC(=O)[C@@H](NC(=O)CNC(=O)[C@H](CCC(N)=O)NC(=O)[C@@H](CO)NC(=O)[C@@H](N)Cc1c[nH]cn1)[C@@H](C)O)[C@@H](C)O)C(=O)N[C@@H](CC(=O)O)C(=O)N[C@@H](CCC(=O)O)C(=O)N[C@@H](CCC(=O)O)C(=O)N[C@@H](C)C(=O)N[C@@H](C)C(=O)N[C@@H](CCCNC(=N)N)C(=O)N[C@@H](CC(C)C)C(=O)N[C@@H](Cc1ccccc1)C(=O)N[C@H](C(=O)N[C@@H](CCC(=O)O)C(=O)N[C@@H](Cc1c[nH]c2ccccc12)C(=O)N[C@@H](CC(C)C)C(=O)N[C@@H](CCCCN)C(=O)N[C@@H](C)C(=O)NCC(=O)NCC(=O)N1CCC[C@H]1C(=O)N[C@@H](CO)C(=O)N[C@@H](CO)C(=O)NCC(=O)N[C@@H](C)C(=O)N1CCC[C@H]1C(=O)N1CCC[C@H]1C(=O)N1CCC[C@H]1C(=O)N[C@@H](CO)C(N)=O)[C@@H](C)CC)C(=O)O)C(=O)O [SEQ ID NO: 32, H-dSer-Q-G-T-F-T-S-D-L-S-K-Q-K(γE-γE-x53)-DEEAARLFIEWLKAGGPSSGAPPPS-NH2, reference compound]	–	–	–	1.9	5.5	565	–	–	–	–
CCCCCCCCCCCCCCCC(=O)N[C@@H](CCC(=O)NCCCC[C@H](NC(=O)[C@H](CCC(N)=O)NC(=O)[C@H](CCCCN)NC(=O)[C@H](CO)NC(=O)[C@H](CC(C)C)NC(=O)[C@H](CC(=O)O)NC(=O)[C@H](CO)NC(=O)[C@@H](NC(=O)[C@H](Cc1ccccc1)NC(=O)[C@@H](NC(=O)CNC(=O)[C@H](CCC(N)=O)NC(=O)[C@@H](CO)NC(=O)[C@@H](N)Cc1c[nH]cn1)[C@@H](C)O)[C@@H](C)O)C(=O)N[C@@H](CC(=O)O)C(=O)N[C@@H](CCC(=O)O)C(=O)N[C@@H](CCC(=O)O)C(=O)N[C@@H](C)C(=O)N[C@@H](C)C(=O)N[C@@H](CCCNC(=N)N)C(=O)N[C@@H](CC(C)C)C(=O)N[C@@H](Cc1ccccc1)C(=O)N[C@H](C(=O)N[C@@H](CCC(=O)O)C(=O)N[C@@H](Cc1c[nH]c2ccccc12)C(=O)N[C@@H](CC(C)C)C(=O)NC(C)(C)C(=O)N[C@@H](C)C(=O)NCC(=O)NCC(=O)N1CCC[C@H]1C(=O)N[C@@H](CO)C(=O)N[C@@H](CO)C(=O)NCC(=O)N[C@@H](C)C(=O)N1CCC[C@H]1C(=O)N1CCC[C@H]1C(=O)N1CCC[C@H]1C(=O)N[C@@H](CO)C(N)=O)[C@@H](C)CC)C(=O)O [SEQ ID NO: 14, H-dSer-Q-G-T-F-T-S-D-L-S-K-Q-K(γE-x53)-D-E-E-A-A-R-L-F-I-E-W-L-Aib-A-G-G-P-S-S-G-A-P-P-P-S-NH2]	2.1	24.7	5360	–	–	–	> 8000	> 8000	94.7	96.3

— patent US9758561B2 (priority 2014, dated 2017)
